# According to ChEMBL document CHEMBL3102778, “Design of the influenza virus inhibitors targeting the PA endonuclease using 3D-QSAR modeling, side-chain hopping, and docking” (Bioorg Med Chem Lett, 2014):
# Experiment: Inhibition of influenza A virus RNA-dependent RNA polymerase subunit PA endonuclease activity
row,SMILES,pIC50
1,CC(=O)c1c(O)n(O)c2cc(NC(=O)Nc3cccc(C(=O)O)c3)ccc12,4.85
2,O=C1C(Cc2ccccc2)=N/C(=C\c2ccc(F)cc2)C(=O)N1O,5.46
3,CCC(=O)c1c(O)n(O)c2cc(NC(=O)Nc3ccccc3Cl)ccc12,4.3
4,O=C(Nc1ccc2c(c1)N(O)C(=O)/C2=C(\O)c1ccccc1)c1ccccc1,5
5,COc1ccc(/C=C2\N=C(Cc3ccccc3)C(=O)N(O)C2=O)cc1,5.55
6,C/C(O)=C1/C(=O)N(O)c2cc(NC(=O)c3cnc4ccccc4n3)ccc21,4.96
7,CC(C)/C=C1\N=C(CC(C)C)C(=O)N(O)C1=O,5.26
8,CC(C)CC1=N/C(=C\c2ccc(F)cc2)C(=O)N(O)C1=O,6.05
9,Cc1cc(C(=O)Nc2ccc3c(c2)N(O)C(=O)/C3=C(\O)c2ccccc2)no1,5.02
10,CC/C(O)=C1/C(=O)N(O)c2cc(NC(=O)/C=C/c3ccccc3Cl)ccc21,5.1
11,O=C1/C(=C(\O)c2ccccc2)c2ccc(NS(=O)(=O)c3cccs3)cc2N1O,4.32
12,CCC(=O)c1c(O)n(O)c2cc(NC(=O)Nc3ccc(Cl)cc3)ccc12,4.42
13,C/C(O)=C1/C(=O)N(O)c2cc(NC(=O)c3cccs3)ccc21,4.4
14,O=C1C(Cc2ccc(F)cc2)=N/C(=C\c2ccccc2)C(=O)N1O,5.19
15,CC(=O)c1c(O)n(O)c2cc(NC(=O)c3ccc4ccccc4c3)ccc12,5.05
16,CC/C(O)=C1/C(=O)N(O)c2cc(NC(=O)Nc3cccc(C(=O)O)c3)ccc21,5
17,O=C(Nc1ccc2c(c1)N(O)C(=O)/C2=C(\O)c1ccccc1)c1ccc(Cl)cc1Cl,4.42
18,O=C(Nc1ccc2c(c1)N(O)C(=O)/C2=C(\O)c1ccccc1)c1cnc2ccccc2n1,4.77

row,SMILES,pIC50
1,Cc1nc(NCC(=O)O)sc1S(=O)(=O)Nc1ccc2c(c1)N(O)C(=O)/C2=C(\O)c1ccccc1,4.49
2,O=C(/C=C/c1ccccc1Cl)Nc1ccc2c(c1)N(O)C(=O)/C2=C(\O)c1ccccc1,5.02
3,C/C(O)=C1/C(=O)N(O)c2cc(NC(=O)/C=C/c3ccccc3Cl)ccc21,4.59
4,CC/C(O)=C1/C(=O)N(O)c2cc(NC(=O)Nc3ccccc3)ccc21,4.4
5,CC/C(O)=C1/C(=O)N(O)c2cc(NC(=O)c3cccs3)ccc21,4.46
6,O=C(O)/C(O)=C/C(=O)C1(Cc2ccc(Cl)cc2)CCCN(Cc2ccccc2)C1 (stereo unspecified),5.96
7,CCC(=O)c1c(O)n(O)c2cc(NC(=O)c3ccc(Cl)cc3Cl)ccc12,4.35
8,O=C(O)/C(O)=C/C(=O)C1(Cc2ccc(Cl)cc2)CCN(Cc2ccc(Cl)cc2)CC1,6.27
9,O=C(Nc1ccccc1)Nc1ccc2c(C(=O)c3ccccc3)c(O)n(O)c2c1,4.54
10,OC(CN1CCCCC1)Cn1c2c(c3ccccc31)CCCC2 (stereo unspecified),4.44
11,O=C(Nc1ccc2c(c1)N(O)C(=O)/C2=C(\O)c1ccccc1)C1CCCCC1,4.75
12,COc1ccc(/C=C2\N=C(CC(C)C)C(=O)N(O)C2=O)cc1,6.1
13,CC/C(O)=C1/C(=O)N(O)c2cc(NC(=O)c3cnc4ccccc4n3)ccc21,5
14,O=C(Nc1ccc2c(c1)N(O)C(=O)/C2=C(\O)c1ccccc1)c1ccc2ccccc2c1,5.1
15,O=C(O)/C(O)=C/C(=O)C1(Cc2ccc(Cl)cc2)CCCN(S(=O)(=O)Cc2ccccc2)C1 (stereo unspecified),6.72
16,O=C(Nc1ccc2c(c1)N(O)C(=O)/C2=C(\O)c1ccccc1)c1cccs1,4.7
17,CC(C)CC1=N/C(=C\c2ccccc2)C(=O)N(O)C1=O,5.32
18,O=C(Nc1ccc2c(C(=O)c3ccccc3)c(O)n(O)c2c1)NC1CCCCC1,4.3
